pKd: −log10 of the molar value.

Assay [1] has as its system PreQ1 riboswitch. Briefly: Binding affinity to Tte preQ1 riboswitch aptamer assessed as binding constant (Koff) by ITC analysis. The following applies: Caldanaerobacter subterraneus; subsp. tengcongensis. Format: nucleic-acid assay.
Assay [2] deals with S-adenosylmethionine-VI riboswitch. Briefly: Binding affinity to Bifidobacterium angulatum SAM-VI riboswitch assessed as assessed as binding constant (Kon) by ITC analysis. The class given is nucleic-acid assay.
Assay [3] has as its target PreQ1 riboswitch. Description: Binding affinity to SA sensor chip-immobilized Tte preQ1 riboswitch aptamer assessed as dissociation constant by SPR steady-state analysis. Format: nucleic-acid assay, Caldanaerobacter subterraneus, subsp. tengcongensis.
Assay [4] concerns PreQ1 riboswitch. Description: Binding affinity to Tte preQ1 riboswitch assessed as change in Gibb's free energy by ITC analysis. The class given is nucleic-acid assay. The following applies: Caldanaerobacter subterraneus; subsp. tengcongensis. A general note: ITC needs no label: the signal is the heat of the interaction.
The target in assay [5] is PreQ1 riboswitch. Briefly: Binding affinity to Tte preQ1 riboswitch aptamer assessed as dissociation constant by MST analysis. The class given is nucleic-acid assay, Caldanaerobacter subterraneus, subsp. tengcongensis.
Assay [6] concerns the target PreQ1 riboswitch. Description: Binding affinity to Tte preQ1 riboswitch aptamer assessed as dissociation constant by ITC analysis. The class given is nucleic-acid assay, Caldanaerobacter subterraneus, subsp. tengcongensis.
Assay [7] relates to PreQ1 riboswitch. Briefly: Binding affinity to SA sensor chip-immobilized Tte preQ1 riboswitch aptamer assessed as binding constant (Koff) by SPR analysis. To be noted: Caldanaerobacter subterraneus; subsp. tengcongensis. The class given is nucleic-acid assay. (In SPR one partner is held on a chip, and binding of the other changes the refractive index at the surface.)
Assay [8] concerns PreQ1 riboswitch. Briefly: Binding affinity to Tte preQ1 riboswitch aptamer assessed as binding constant (Kon) by ITC analysis. To be noted: Caldanaerobacter subterraneus; subsp. tengcongensis. Format: nucleic-acid assay.
Assay [9] concerns PreQ1 riboswitch. Description: Binding affinity to SA sensor chip-immobilized Tte preQ1 riboswitch aptamer assessed as binding constant (Kon) by SPR analysis. The class given is nucleic-acid assay. The following applies: Caldanaerobacter subterraneus; subsp. tengcongensis.
Assay [10] concerns the target PreQ1 riboswitch. Briefly: Binding affinity to SA sensor chip-immobilized Tte preQ1 riboswitch aptamer assessed as dissociation constant by SPR analysis. The class given is nucleic-acid assay, Caldanaerobacter subterraneus, subsp. tengcongensis.
Assay [11] concerns PreQ1 riboswitch. Description: Binding affinity to Tte preQ1 riboswitch aptamer assessed as change in entropy by ITC analysis. The class given is nucleic-acid assay. The following applies: Caldanaerobacter subterraneus; subsp. tengcongensis.
Assay [12] concerns PreQ1 riboswitch. Description: Binding affinity to Tte preQ1 riboswitch aptamer assessed as change in enthalpy by ITC analysis. The class given is nucleic-acid assay. The following applies: Caldanaerobacter subterraneus; subsp. tengcongensis.
In assay [13] the target is S-adenosylmethionine-VI riboswitch. Briefly: Binding affinity to Bifidobacterium angulatum SAM-VI riboswitch assessed as dissociation constant by ITC analysis. The class given is nucleic-acid assay.
Assay [14] deals with PreQ1 riboswitch. Briefly: Binding affinity to Alexa Fluor 647-labeled Tte preQ1 riboswitch assessed as dissociation constant by fluorescence based analysis. The class given is nucleic-acid assay, Caldanaerobacter subterraneus, subsp. tengcongensis.
Assay [15] deals with Precursor microRNA-372. Briefly: Binding affinity to pre-miRNA-372 beacon (unknown origin) assessed as dissociation constant measured after 4 hrs by fluorescence based analysis. The class given is nucleic-acid assay.
Assay [16] addresses S-adenosylmethionine-VI riboswitch. Briefly: Binding affinity to SA sensor chip-immobilized Bifidobacterium angulatum SAM-VI riboswitch aptamer assessed as dissociation constant by SPR analysis. Format: nucleic-acid assay.
Assay [17] shares this target. Description: Binding affinity to SA sensor chip-immobilized Bifidobacterium angulatum SAM-VI riboswitch aptamer assessed as dissociation constant by SPR steady-state analysis. The class given is nucleic-acid assay.
The subject of assay [18] is S-adenosylmethionine-VI riboswitch. Briefly: Binding affinity to SA sensor chip-immobilized Bifidobacterium angulatum SAM-VI riboswitch aptamer assessed as binding constant (Koff) by SPR analysis. The class given is nucleic-acid assay.
For assay [19] the test system is unchanged. Description: Binding affinity to SA sensor chip-immobilized Bifidobacterium angulatum SAM-VI riboswitch aptamer assessed as binding constant (Kon) by SPR analysis. Format: nucleic-acid assay.
In assay [20] the target is TAR RNA. Briefly: Binding affinity to Alexa Fluor 488-labeled HIV-1 TAR RNA assessed as dissociation constant by fluorescence based analysis. Format: nucleic-acid assay, Human immunodeficiency virus 1.
The target of assay [21] is Ribozyme. Briefly: Binding affinity to Tetrahymena group I ribozyme (unknown origin) assessed as dissociation constant. The class given is nucleic-acid assay.
The subject of assay [22] is Ribozyme. Description: Binding affinity to Tetrahymena group I ribozyme (unknown origin) assessed as binding constant (Kon). Format: nucleic-acid assay.
The test system of assay [23] is Ribozyme. Description: Binding affinity to Tetrahymena group I ribozyme (unknown origin) assessed as binding constant (Koff). Format: nucleic-acid assay.

For the compound `Nc1ncnc2c1ncn2[C@@H]1O[C@H](CSCC[C@H](N)C(=O)O)[C@@H](O)[C@H]1O` [S-ADENOSYLHOMOCYSTEINE], the K is 4.58 10^-2/s in [1], 5.5 10^3/M/s in assay [2], 3.57 10^3/M/s in assay [8] and 3.88 10^2/Ms in assay [9]. Moreover, the pKd (commonly the Kd on a negative log10 scale, so that one unit is a factor of ten) in assay [3] was 3.92; in assay [5], 4.46; in assay [6] it was 4.85; in [10] it was 3.82; in [13] it was 4.96. Also, the deltaG in assay [4] was -6.64 kcal/mol. Further, the koff – broadly, a measure of how fast the partners let go of each other – in assay [7] was found to be 0.054 s⁻¹. Further, the -TdeltaS in assay [11] stood at 1.63 kcal/mol. In assay [12], the deltaH is -8.27 kcal/mol.

Consider `NCCOc1ccc2oc3ccccc3c2c1`, for which the pKd in assay [14] is 6.30.

Consider `C[S+](CC[C@H](N)C(=O)[O-])C[C@H]1O[C@@H](n2cnc3c(N)ncnc32)[C@H](O)[C@@H]1O` (stereo partly specified) [ADEMETIONINE], for which the K is 1.42 10^-2/s in [1], 2.46 10^4/M/s in assay [2], 2.13 10^4/M/s in [8] and 2.98 10^3/Ms in assay [9]. The negative logarithm of the Kd (pKd) in assay [3] was 5.34; in assay [5], 6.14; in assay [6], 6.17; in [10] it was 5.43; in [13] it was 6.48. For the same compound, the deltaG in [4] was -8.44 kcal/mol. Moreover, the -TdeltaS in [11] is 6.09 kcal/mol. The deltaH in assay [12] is -14.5 kcal/mol.

Regarding `NC[C@@H]1O[C@H](O[C@H]2[C@@H](O)[C@H](O[C@@H]3[C@@H](O)[C@H](N)C[C@H](N)[C@H]3O[C@H]3O[C@H](CN)[C@@H](O)[C@H](O)[C@H]3N)O[C@@H]2CO)[C@H](N)[C@@H](O)[C@@H]1O` [FRAMYCETIN], the pKd in [15] is 5.13.

With `CC(=O)Nc1csc(-c2cccc(NC(=O)CCc3cn(C[C@H]4O[C@@H](O[C@@H]5[C@@H](O)[C@H](N)C[C@H](N)[C@H]5O[C@H]5O[C@H](CN)[C@@H](O)[C@H](O)[C@H]5N)[C@H](O)[C@@H]4O[C@H]4O[C@@H](CN)[C@@H](O)[C@H](O)[C@H]4N)nn3)c2)n1`, in assay [15], the pKd is 7.80.

For the compound `NCCCNC[C@H]1O[C@@H](n2cnc3c(N)ncnc32)[C@H](O)[C@@H]1O`, the pKd was 5.51 in [16]; 4.80 in [3]; 5.22 in [17]; 5.01 in assay [5]; 5.76 in [6]; 5.38 in assay [10]. In addition, the K in assay [1] was 2.38 10^-2/s; in [8] it was 1.36 10^4/M/s; in assay [18], 4.59 10^-2/s; in assay [19], 1.48 10^4/M/s; in assay [9], 1.28 10^4/Ms. In assay [4], the deltaG is -7.89 kcal/mol. Besides, the koff in assay [7] came out at 0.0481 s⁻¹. Besides, in [11], the -TdeltaS came out at 13 kcal/mol. For the same compound, the deltaH in [12] is -20.9 kcal/mol.

For `CC(=O)Nc1nc(-c2cccc(NC(=O)[C@H]3C[C@H](OC(=O)[C@@H](N)CCCN)[C@@H](COC(=O)[C@@H](N)CCCCN)O3)c2)cs1`, the pKd in [20] is 5.10.

Regarding `Nc1nc2c(ncn2[C@H]2C[C@H](N)[C@@H](CO)O2)c(=O)[nH]1`, in [21], the pKd is 7.03. Also, the values for the K in assay [22] and in assay [23] were > 2.1 10^7/M/min and above 2 min⁻¹, respectively.

Take `Nc1nc2c(ncn2[C@@H]2O[C@H](CO)[C@@H](O)[C@H]2O)c(=O)[nH]1` [GUANOSINE]: the pKd in assay [21] is 3.96. The K was 4 10^5/M/min in assay [22] and 44 min⁻¹ in assay [23].

Consider `Nc1ncnc2c1ncn2[C@@H]1O[C@H](CNCC[C@H](N)C(=O)O)[C@@H](O)[C@H]1O`, for which the K in [1] was 4.66 10^-2/s; in [8] it was 1.54 10^4/M/s; in assay [9], 2.94 10^3/Ms. In addition, the pKd is 4.68 in assay [3], 4.48 in assay [5], 5.48 in [6] and 4.91 in assay [10]. The deltaG in assay [4] is -7.48 kcal/mol. Further, in assay [7], the koff was found to be 0.0361 s⁻¹. For the same compound, the -TdeltaS in assay [11] stood at 15.3 kcal/mol. The deltaH in assay [12] was -22.8 kcal/mol.

Source of the values: ChEMBL document CHEMBL6134852, “Electrostatic Anchoring in RNA-Ligand Design─Dissecting the Effects of Positive Charges on Affinity, Selectivity, Binding Kinetics, and Thermodynamics” (J Med Chem, 2025).
